Nc1cccc(C(=O)O)c1O
solubility (mole fraction)
Conditions	293.2 K	298.2 K	303.2 K	308.2 K	313.2 K
in n-propanol	0.000339	0.00046	0.000522	0.00058	0.000681
in water	0.00012	0.000122	0.000139	0.000148	0.000165
